The values that follow come from US10807994B2, “Heterocyclic compounds and uses thereof” (NUVATION BIO INC., priority 2017, dated 2020).

Some results are limits rather than exact numbers.

Experiment [1] deals with A427 cells. Put plainly: Cytotoxicity assay (resazurin), A427 cells, 72 hr. Format: cell-based. As to conditions: Homo sapiens, A-427, read-out: Cell Viability A427 IC50. The gist of the method: (§1)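 Cells seeded at 1500 per well, grown 24 hr at 37° C, 5% CO2, then exposed to serially diluted compounds for 72–96 hr before 4–6 hr with 1 mM resazurin (Ex 535/Em 590 nm). Blank-subtracted signal normalised to DMSO control; percent inhibition used for IC50.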

The test system of another experiment is LoVo cells. Put plainly: Cell proliferation assay (Cell Titer-Glo), LoVo cells. It is filed as cell-based. The following applies: Homo sapiens, typically 72 hrs post-treatment. How it is done: (§2) The effects of test compounds were studied in five cell lines with various histotypes. The cancer cells (Table 4) were harvested during the logarithmic growth period and counted. Adjust cell concentrations to the appropriated number with respective medium, and add 90 μL cell suspensions to 96-well plates. After cells were seeded, the plates were shaken gently to distribute cells evenly and incubated at 37° C., 5% CO2 on day 1.
(§3) Cells were treated with test compounds at 9 concentrations within a desired concentration range (e.g. 1.5 nM-10 μM) on day 2 by series diluting the test compound stock solution (10 mM in DMSO) with culture medium. Cell viability was assessed by Cell Titer-Glo® as recommended by Promega (Cat. No.: G7572, Promega) typically 72 hrs post-treatment.
(§4) Cell viability data were plotted using GraphPad Prism (version 5, GraphPad Software, Inc., San Diego, Calif.). In addition, a nonlinear regression model with a sigmoidal dose response and variable slope within GraphPad Prism was used to calculate the IC50 value of individual test compounds.
(ATP-based viability assays read luminescence as a measure of living cells.)

The next experiment has as its system A549 cells. Put plainly: Cytotoxicity assay (resazurin), A549 cells, 96 hr. Format: cell-based. The following applies: Homo sapiens, read-out: Cell Viability A549 IC50. The gist of the method:
as §1
In general terms: The colour change of resazurin is a common sign of viable cells or microbes.

A further experiment has as its system NCI-H460 cells. Put plainly: Cell proliferation assay (Cell Titer-Glo), NCI-H460 cells. Format: cell-based. As to conditions: Homo sapiens, typically 72 hrs post-treatment. How it is done: as §2, §3, §4
For a further experiment, the target named is WEE1 kinase enzyme (Homo sapiens (Human), UniProt P30291). Put plainly: WEE1 IC50 determination, LanthaScreen Terbium labeled TR-FRET kinase assay. It is filed as biochemical. As to conditions: WEE1 enzyme 1 nM. The procedure, abridged:
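Human WEE1 (1 nM) was preincubated 10 min with 3-fold diluted compounds, then ATP ([…]) and fluorescent PolyGT substrate (200 nM) were added for 1 h at room temperature in the dark. Terbium antibody/EDTA stop, TR-FRET read (ex 340, em 495/520 nm); IC50 from four-parameter logistic fit of percent inhibition.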
For orientation: TR-FRET usually uses a lanthanide donor and a delayed reading to cut background.

In a further experiment the test system is HCT-116 cells. Put plainly: Cell proliferation assay (Cell Titer-Glo), HCT-116 cells. As to conditions: Homo sapiens, typically 72 hrs post-treatment, read-out: IC50 HCT116. It is filed as cell-based. How it is done:
as §2, §3, §4

Experiment [2] concerns A427 cells. Put plainly: Cell proliferation assay (Cell Titer-Glo), A427 cells. It is filed as cell-based. As to conditions: Homo sapiens, A-427, typically 72 hrs post-treatment. As for the experimental part: as §2, §3, §4

Sequence of WEE1 kinase enzyme (P30291 whole entry): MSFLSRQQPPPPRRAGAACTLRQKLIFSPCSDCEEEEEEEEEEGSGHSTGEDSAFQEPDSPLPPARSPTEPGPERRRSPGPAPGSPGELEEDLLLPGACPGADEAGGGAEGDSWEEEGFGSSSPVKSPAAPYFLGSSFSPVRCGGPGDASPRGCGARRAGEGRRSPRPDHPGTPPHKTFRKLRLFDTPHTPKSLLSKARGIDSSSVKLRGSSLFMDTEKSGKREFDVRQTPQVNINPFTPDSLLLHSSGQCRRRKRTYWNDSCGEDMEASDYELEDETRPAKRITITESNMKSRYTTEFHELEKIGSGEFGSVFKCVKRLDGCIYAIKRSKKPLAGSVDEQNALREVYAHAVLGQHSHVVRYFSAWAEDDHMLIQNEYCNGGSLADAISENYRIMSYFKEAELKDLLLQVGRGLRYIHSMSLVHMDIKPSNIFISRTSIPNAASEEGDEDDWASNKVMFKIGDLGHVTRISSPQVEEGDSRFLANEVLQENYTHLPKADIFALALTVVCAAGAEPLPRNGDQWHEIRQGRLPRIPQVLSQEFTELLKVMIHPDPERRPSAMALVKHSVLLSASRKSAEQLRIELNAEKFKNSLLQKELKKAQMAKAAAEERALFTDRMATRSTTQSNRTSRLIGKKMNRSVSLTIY

In general, IC50 refers to the point on the concentration scale where inhibition reaches its midpoint. In the case of `CC1(C)CN(C(=O)CO)Cc2cc(Nc3ncc4c(n3)OCN(c3c(Cl)cccc3Cl)C4=O)ccc21` [Example 1.3], the IC50 with A427 cells [1] is 4.52 µM; in the experiment on LoVo cells it was 8.26 µM; with A549 cells it was 2.99 µM; in the experiment with NCI-H460 cells, > 10 µM; at WEE1 kinase enzyme it was 0.04 µM; with HCT-116 cells, 8.12 µM. In the experiment with A427 cells [2], this compound showed an IC50 of 5.98 µM.
